Data: patent US20100316746A1, “Pesticidal Compound Mixtures” (Bayer CropScience AG, priority 2007, published 2010)

Assays:
Myzus persicae = assay: Myzus persicae-Test (sprayed cabbage leaves); assay type: in vivo; settings: 144 h, after 6 d, spray on cabbage leaves
Procedure: (§1) Solvent: 7 parts by weight of dimethylformamide Emulsifier: 2 parts by weight of alkylaryl polyglycolether
(§2) To produce a suitable preparation of active compound, 1 part by weight of active compound is mixed with the stated amount of solvent and emulsifier, and the concentrate is diluted with emulsifier-containing water to the desired concentration.
Cabbage leaves (Brassica oleracea) which are heavily infested by the green peach aphid (Myzus persicae) are treated by being sprayed with the preparation of the active compound at the desired concentration.
After the specified period of time, the mortality in % is determined. 100% means that all the aphids have been killed; 0% means that none of the aphids have been killed.

Phaedon cochleariae = assay: Phaedon cochleariae-Test (larvae, sprayed cabbage leaves); assay type: in vivo; settings: 144 h, after 6 d, spray on cabbage leaves
Procedure: as §1, §2
Cabbage leaves (Brassica oleracea) are treated by being sprayed with the preparation of the active compound in the desired concentration and are infested with larvae of the mustard beetle (Phaedon cochleariae) as long as the leaves are still moist.
After the specified period of time, the mortality in % is determined. 100% means that all the beetle larvae have been killed; 0% means that none of the beetle larvae have been killed.

**Q.** `CN/C(=N\[N+](=O)[O-])NCc1cnc(Cl)s1` [Clothianidin, clothianidin] was tested. Which mortality at 0.8 ppm (Myzus persicae; 0.8 ppm) did it give?
**A.** The mortality at 0.8 ppm was 65%.

**Q.** What about the mortality at 4 ppm (Phaedon cochleariae; 4 ppm) of the same molecule?
**A.** The mortality at 4 ppm was 55%.

**Q.** Which results are given for `CC(C)C1CCC(Cc2ccc(Cl)cc2)C1(O)Cn1cncn1` (centres unmarked) [Ipconazole, ipconazole]?
**A.** mortality at 200 ppm (Myzus persicae): 10%; mortality at 200 ppm (Phaedon cochleariae; 200 ppm): 5%

**Q.** For `COCC(=O)N(c1c(C)cccc1C)C(C)C(=O)OC` (centres unmarked) [Metalaxyl, metalaxyl], which mortality at 200 ppm (Myzus persicae) is on record?
**A.** The mortality at 200 ppm was 0%.
